In patent US10955415B2, “CD247 as a biomarker for assessing the effect of chemotherapeutic and biological drugs” (YISSUM RESEARCH DEVELOPMENT COMPANY OF THE HEBREW …, priority 2011, dated 2021):
Entries after “also recorded” stand apart in the source; their conditions may differ.

What was measured:
MDSCs [1] = test: MDSC infiltration in colon lamina propria and epithel, CRC mouse model; type: in vivo; details: CRC-bearing mice, tumor tissue
S100A8/9 = S100A8/9 mRNA and S100A9 immunoblot in purified MDSCs and total spleen; type: in vivo; details: purified MDSCs and total splenic population, BCG-inflamed mice; for S100A9 protein levels: immunoblot
Description: FIG. 17A. Purified MDSCs from spleens (n=4); and FIG. 17B. A total spleen population was used to analyze mRNA levels of S100A8/9 (left), and to perform immunoblotting of S100A9 (right) following the course of chronic inflammation alone, chronically inflamed mice treated with 5-FU or CPT11 (n=4), α-Tubulin levels served as a control.
Analyses used either the splenocyte population or peripheral blood as mentioned above. Cells (5×10^7/ml, or 1×10^6/ml) were lysed with Tris-NaCl buffer containing 0.5% Triton X-100 and protease inhibitors for 30 min on ice. Proteins were resolved on 12% SDS-PAGE and subjected to immunoblotting analysis using the following specific antibodies: anti-CD247, antiCD3ε antibodies, anti-S100A9, anti-S100A8, anti-iNOS, anti-ARG1, and anti-αTubulin antibodies. Specific antibodies were detected by incubation with protein A (Amersham), anti-rat or anti-goat antibodies conjugated to horseradish peroxidase (Jackson Immunoresearch), followed by enhanced chemiluminescence and exposure to Kodak X-ray films.
Total RNA was recovered from splenocytes or isolated MDSCs using Tri-Reagent (Sigma) and was subjected to reverse transcription with m-MLV-RT (Invitrogen) and random primers (IDT). Quantitative mRNA expression was analyzed by real-time PCR (ABI 7900), with SYBR green (Invitrogen). RT-PCR primers were designed to recognize an exon-exon boundary in all transcripts.

[2] = system: CD247 in NK (NCR1+) cells; test: CD247 expression in gated NK (NCR1+) cells from spleen; type: in vivo; details: spleen of BCG-inflamed mice, monotherapy
Method: FIG. 2E. CD247 expression was measured gating on NK (NCR1+) cells derived from the spleens of each group. Data from three independent experiments is presented (n=4). Statistical analyses using t test indicated significant differences at 95% Cl. Means and SEM are shown. *, P<0.05.
Isolated splenocytes and peripheral blood leukocytes (PBLs) were treated with erythrocyte lysis buffer and washed in PBS. Cells were pre-coated with anti-CD16/CD32 (Biolegend) for FcR blockage. For surface staining, cells were incubated for 30 min at 4° C. with FITC-labeled anti-Gr1, anti-CD11c, and anti-CD4; PE-labeled anti F4/80, anti-CD3ε, anti-CD45R/B220, and anti-mNKp46; and biotinylated anti-CD11b and anti-CD8 that were detected with streptavidin-Cy5 (Biolegend and eBioscience). Intracellular staining of CD247 cells was performed by subjecting the cells to fixation with paraformaldehyde (1%) for 20 min at 4° C., followed by washing and permeabilization for 10 min with saponin detergent (0.1%) at room temperature (RT). Cells were then washed and incubated with FITC-labeled monoclonal anti-CD247 (H146) (Abcam), or biotinylated monoclonal anti-CD247 (H146), which were subsequently detected with streptavidin-Cy5. FoxP3 staining was performed according to the manufacturer's instructions. Samples were analyzed using FACSCalibur with Cell Quest software (BD).

CD247 = CD247 expression in T cells infiltrating the colon, CRC mouse model; type: in vivo; details: CRC-bearing mice
MDSCs [3] = type: in vivo, mice; details: mouse, in vivo
Thy1.2+ (CD90+) T-cells = test: T-cell proliferation of CFSE-labeled splenocytes activated with anti-CD3 and anti-CD28; type: in vivo; details: splenocytes of BCG-inflamed treated mice, anti-CD3/anti-CD28 activation
Method: FIG. 2C. Splenocytes from untreated, inflamed, and inflamed-treated i.v. with irinotecan were labeled with CFSE and activated with anti-CD3 and anti-CD28 antibodies or left non-activated. The proliferative response was assessed by monitoring cell divisions of gated CFSE-labeled Thy1.2+ (CD90+) cells. Data was calculated by percent of proliferating cells compared to steady state of non-activated of each group.
FIG. 18A-18E. Splenocytes and PBLs from mice untreated (naïve), inflamed, or inflamed and treated with 5-FU or CPT-11 were fixed, permeabilized, and double stained for the expression of CD247 (ζ-chain) (FIGS. 18A, 18B) and CD3ε-chain (FIGS. 18D, 18E), as shown by mean fluorescence intensity (MFI), measured in gated CD3^+ cells. FIG. 18C: Splenocytes from mice, naïve, inflamed and inflamed treated with 5-FU or CPT-11, were labeled with CFSE and activated with anti-CD3 and anti-CD28 antibodies or left non-activated. The proliferative response was assessed by monitoring cell divisions of gated CFSE-labeled Thy1.2+ (CD90+) T-cells. The percent of proliferating cells was calculated and compared to steady state levels of non-activated cells per each group. Data from three independent experiments is presented (n=3). Statistical analyses using t test indicated significant differences at 95%. Means and SEM are shown. *, P<0.05; **, P<0.01. FIG. 18F-18I. For the detection of myeloid differentiation state, splenocytes from each group were stained for (18F) DC11b^+CD11c^+ cells (representing DCs), (18G) DC11b^+F4/80^+ cells (representing monocytes), (18H) CD11c^+MHCII^+CD80^+ cells (representing fully differentiated […] as antigen presenting cells) and (18I) F4/80^+MHCII^+CD80^+ cells (representing fully differentiated […] as antigen presenting cells). Data from three independent experiments (n=4) is presented. Statistical analyses using t test indicated significant differences at 95%. Means and SEM are shown. *, P<0.05; **, P<0.01; ***, P<0.001. Abbreviations: Nor. (normal), Rel. (relative), Inf. (inflamed), ce. Pro. (cell proliferation)

CD3ε chain = system: CD3ε chain; design: species or system mice; details: mouse, in vivo
colorectal cancer (CRC) = test: Survival, colon structure and tumor loads of CRC-bearing mice; type: in vivo
Method: Survival of mice CRC, CRC-5-FU or CRC-5FU/CPT-11 treatment is shown as Kaplan-Meyer curve (n=20). Time points of AOM injections and the period of DSS addition are represented by gray arrows and lines, respectively. Start point of chemotherapy treatment and continual boosts are shown as black arrows.
The mouse model for CRC was established by two repeated injections of azoxymethane (AOM) (Sigma) in intervals of two weeks followed by two weekly administrations of DSS (Sigma) that was added to drinking water every two weeks for duration of about seven days. In order to test the influence of chemotherapeutic drugs on the induced-chronic inflammatory environment in a CRC model, after the second DSS treatment mice were randomized into three groups (n=10 mice) as follows: CRC control group, CRC and 5-FU i.p inoculated group and CRC and CPT-11 i.p inoculated group. Mice were sacrificed at week +11, three weeks after the second DSS treatment.
It important to note that in each of the experiments performed (presented in FIG. 21 and FIG. 22), pathological macroscopic and microscopic tests have been performed on the structure of the colon and counts were made of the tumor loads.

CD4+Foxp3+ Treg cells = system: CD4+Foxp3+ Treg cells; design: species or system mice; details: mouse, in vivo

Structure (SMILES)	MDSCs infiltration in lamina propria and colon epithelial tissue (MDSCs [1])	mRNA levels of S100A8/9 (S100A8/9)	S100A9 protein levels (S100A8/9)	CD247 expression in NK (NCR1+) cells ([2]; listed as CPT11)	CD247 expression in NK (NCR1+) cells ([2]; listed as CPT-11)	CD247 expression levels in T cells infiltrating the colon (CD247)	NO production by MDSCs (MDSCs [3])	ROS production by MDSCs (MDSCs [3])	proliferative capacity of T cells (Thy1.2+ (CD90+) T-cells; listed as CPT11)	proliferative capacity of T cells (Thy1.2+ (CD90+) T-cells; listed as CPT-11)	CD3ε expression levels (CD3ε chain)	survival of CRC mice (Kaplan-Meyer) (colorectal cancer (CRC))	levels of Treg cells (CD4+Foxp3+) in spleen (CD4+Foxp3+ Treg cells)	CD247 expression in NK (NCR1+) cells [2]	reduction of hROS of MDSCs (MDSCs [3])	proliferative capacity of T cells (Thy1.2+ (CD90+) T-cells)	curable effects on colon structure and tumor loads (colorectal cancer (CRC); macroscopic and microscopic pathology)
CCc1c2c(nc3ccc(OC(=O)N4CCC(N5CCCCC5)CC4)cc13)-c1cc3c(c(=O)n1C2)COC(=O)[C@]3(O)CC [Irinotecan]	significantly increased	no significant changes	remained high	low CD247 expression	remained down-regulated with no further decrease	Reduced levels	significant elevation; also recorded: did not result in any further changes	significant elevation; also recorded: significantly increased	impaired proliferative capacity	significantly diminished	remained unchanged; also recorded: not down regulated	reduced survival rate	remained unchanged				
O=c1[nH]cc(F)c(=O)[nH]1 [5-FU, 5-Fluorouracil]	significantly reduced	significant decrease	decreased amounts			elevated	decreased	decreased			rather constant; also recorded: not down regulated	increased survival	remained unchanged	recovery from immunosuppression; also recorded: almost completely recovered	better results	tendency of a functional recovery	observed
